# Data published in US20110275583A1, “Synergistic active compound combinations” (priority 2010, published 2011).
# Where two headings read alike, the source gives them in different places.
# Key:
# Format in all cases: in vivo
# [1] = tested on: green peach aphid (Myzus persicae); test: Myzus persicae test (spray treatment of infested cabbage leaves)
# From the text: (§1) The expected action for a given combination of two active compounds can be calculated as follows, using the formula of S. R. Colby, Weeds 15 (1967), 20-22: • If • X is the kill rate, expressed as % of the untreated control, when employing active compound A at an application rate of m g/ha or in a concentration of in ppm, • Y is the kill rate, expressed as % of the untreated control, when employing active compound B at an application rate of n g/ha or in a concentration of n ppm and • E is the kill rate, expressed as % of the untreated control, when employing active compounds A and B at application rates of m and n g/ha or in a concentration of m and n ppm, • then
# (§2) If the actual kill rate exceeds the calculated value, the action of the combination is superadditive, i.e. a synergistic effect is present. In this case, the actually observed kill rate must exceed the value calculated using the above formula for the expected kill rate (E).
# (§3) Solvent: 78 parts by weight of acetone • • 1.5 parts by weight of dimethylformamide
# (§4) Emulsifier: 0.5 part by weight of alkylaryl polyglycol ether
# (§5) To produce a suitable preparation of active compound, 1 part by weight of active compound is mixed with the stated amounts of solvent and emulsifier, and the concentrate is diluted with emulsifier-containing water to the desired concentration.
# Cabbage leaves (Brassica oleracea) which are heavily infested by the green peach aphid (Myzus persicae) are treated by spraying with the active compound preparation of the desired concentration.
# After the desired period of time, the kill in % is determined. 100% means that all of the aphids have been killed; 0% means that none of the aphids have been killed. The kill rates determined are entered into Colby's formula.
# [2] = tested on: armyworm (Spodoptera frugiperda); test: Spodoptera frugiperda larvae test (sprayed cabbage leaves); conditions: Spodoptera frugiperda, single active compound
# From the text: as §1, §2, §3, §4, §5
# Cabbage leaves (Brassica oleracea) are treated by being sprayed with the preparation of active compound of the desired concentration and are populated with the armyworm (Spodoptera frugiperda) while the leaves are still moist.
# After the desired period of time, the kill in % is determined. 100% means that all caterpillars have been killed; 0% means that none of the caterpillars have been killed. The kill rates determined are entered, into Colby's formula.
# [3] = tested on: larvae of the mustard beetle (Phaedon cochleariae); test: Phaedon cochleariae larvae test (sprayed cabbage leaves); conditions: single active compound
# From the text: as §1, §2, §3, §4, §5
# Cabbage leaves (Brassica oleracea) are treated by spraying with the active compound preparation of the desired concentration and populated with larvae of the mustard beetle (Phaedon cochleariae) while the leaves are still moist.
# After the desired period of time, the kill in % is determined. 100% means that all beetle larvae have been killed; 0% means that none of the beetle larvae have been killed. The kill rates determined are entered into Colby's formula.
# [4] = tested on: greenhouse red spider mite (Tetranychus urticae); test: Tetranychus test, OP-resistant/spray treatment (bean leaf discs); conditions: single active compound
# From the text: as §1, §2, §3, §4, §5
# Discs of bean leaves (Phaseolus vulgaris) which are infested by all stages of the greenhouse red spider mite (Tetranychus urticae) are sprayed with an active compound preparation of the desired concentration.
# After the desired period of time, the effect in % is determined. 100% means that all of the spider mites have been killed; 0% means that none of the spider mites have been killed.
# [5] = Myzus persicae, 144 h, single active compound, 6 d, read-out: Kill in % after 6 d
# [6] = 48 h, 2 d, read-out: Kill in % after 2 d
# [7] = Myzus persicae, 24 h, after 1 d, read-out: Kill in % after 1d
# [8] = Phaedon cochleariae, 144 h, 20 g/ha, 6 d, read-out: Kill in % after 6 d
# [9] = Phaedon cochleariae, 144 h, 6 d, read-out: Kill in % after 6 d
# [10] = Tetranychus urticae, foliar, 144 h, 6 d, read-out: Kill in % after 6 d
# [11] = Tetranychus urticae, foliar, 144 h, 4 g/ha, 6 d, read-out: Kill in % after 6 d
# [12] = Myzus persicae, 144 h, 0.16 g/ha, single active compound, 6 d, read-out: Kill in % after 6 d
# [13] = 144 h, 6 d, read-out: Kill in % after 6 d
# [14] = Tetranychus urticae, foliar, 144 h, 20 g/ha, 6 d, read-out: Kill in % after 6 d
# [15] = Tetranychus urticae, foliar, 48 h, 4 g/ha, 2 d, read-out: Kill in % after 2 d
# [16] = Phaedon cochleariae, 48 h, 20 g/ha, 2 d, read-out: Kill in % after 2 d
# [17] = Tetranychus urticae, foliar, 48 h, 2 d, read-out: Kill in % after 2 d
# [18] = Myzus persicae, 24 h, 0.16 g/ha, after 1 d, read-out: Kill in % after 1d
compound,measurement,setting,value
N#Cc1ccc(CC(=NNC(=O)Nc2ccc(OC(F)(F)F)cc2)c2cccc(C(F)(F)F)c2)cc1 (mixture of isomers) [metaflumizone],pest or weed control at 4 g/ha,[1]; [5],0%
same,pest or weed control at 100 g/ha,[2]; [6],0%
Cc1c(F)c(F)c(COC(=O)[C@@H]2[C@H](/C=C(\Cl)C(F)(F)F)C2(C)C)c(F)c1F (racemic) [tefluthrin],pest or weed control at 4 g/ha,[1]; [7],70%
same,pest or weed control at 20 g/ha,[3]; [8],33%
"Cc1cc(F)c(-n2nc(C(F)(F)F)nc2N)cc1[S+]([O-])CC(F)(F)F (stereo not shown) [1-{2-fluoro-4-methyl-5-[(2,2,2-trifluoroethyl)sulphinyl]phenyl}-3-(trifluoromethyl)-1H-1,2,4-triazole-5-amine]",pest or weed control at 100 g/ha,[3]; [9],0%
same,pest or weed control at 0.8 g/ha,[4]; [10],0%
same,pest or weed control at 4 g/ha,[4]; [11],80%
"O=C1C=C(N(Cc2ccc(Cl)nc2)CC(F)F)CO1 [4-{[(6-chloropyrid-3-yl)methyl](2,2-difluoroethyl)amino}furan-2(5H)-one]",pest or weed control at 4 g/ha,[1]; [7],70%
C/C(=N\C#N)N(C)Cc1ccc(Cl)nc1 [acetamiprid],pest or weed control at 0.16 g/ha,[1]; [12],0%
same,pest or weed control at 20 g/ha,[3]; [8],0%
CC1(C)C(/C=C/C(=O)OC(C(F)(F)F)C(F)(F)F)C1C(=O)OC(C#N)c1cccc(Oc2ccccc2)c1 (stereo not shown) [acrinathrin],pest or weed control at 0.8 g/ha,"[2]; 144 h, 0.8 g/ha, 6 d, read-out: Kill in % after 6 d",0%
CC(C)N1C(=O)N(c2ccccc2)CS/C1=N\C(C)(C)C [buprofezin],pest or weed control at 500 g/ha,"[1]; Myzus persicae, 144 h, 500 g/ha, single active compound, 6 d, read-out: Kill in % after 6 d",0%
CNC(=O)Oc1cccc2c1OC(C)(C)C2 [carbofuran],pest or weed control at 4 g/ha,[2]; [13],0%
CCOCn1c(-c2ccc(Cl)cc2)c(C#N)c(Br)c1C(F)(F)F [chlorfenapyr],pest or weed control at 100 g/ha,[2]; [6],50%
CC1(C)C(C=C(Cl)Cl)C1C(=O)OC(C#N)c1cccc(Oc2ccccc2)c1 (stereo not shown) [cypermethrin],pest or weed control at 0.8 g/ha,[1]; [7],70%
same,pest or weed control at 4 g/ha,"[3]; Phaedon cochleariae, 48 h, 4 g/ha, 2 d, read-out: Kill in % after 2 d",17%
same,pest or weed control at 20 g/ha,[4]; [14],0%
CC(C)c1cc(Oc2ccccc2)cc(C(C)C)c1NC(=S)NC(C)(C)C [diafenthiuron],pest or weed control at 20 g/ha,[1]; [7],0%
same,pest or weed control at 4 g/ha,[4]; [15],0%
CN/C(=N\[N+](=O)[O-])NCC1CCOC1 (stereo not shown) [dinotefuran],pest or weed control at 4 g/ha,[1]; [7],0%
same,pest or weed control at 4 g/ha,[1]; [5],0%
same,pest or weed control at 20 g/ha,[3]; [16],17%
CC[S+]([O-])c1c(C#N)nn(-c2c(Cl)cc(C(F)(F)F)cc2Cl)c1N (stereo not shown) [ethiprole],pest or weed control at 20 g/ha,[1]; [7],0%
same,pest or weed control at 0.16 g/ha,"[3]; Phaedon cochleariae, 144 h, 0.16 g/ha, 6 d, read-out: Kill in % after 6 d",0%
same,pest or weed control at 20 g/ha,[4]; [14],0%
"Cc1nn(C)c(Oc2ccccc2)c1C=NOCc1ccc(C(=O)OC(C)(C)C)cc1 [fenpyroximate, Fenpyroximate]",pest or weed control at 20 g/ha,[3]; [16],0%
O=C(NC(=O)c1c(F)cccc1F)Nc1ccc(Oc2ccc(C(F)(F)F)cc2Cl)cc1F [flufenoxuron],pest or weed control at 20 g/ha,[2]; [13],33%
CC1(C)[C@H](/C=C(\Cl)C(F)(F)F)[C@@H]1C(=O)O[C@H](C#N)c1cccc(Oc2ccccc2)c1 [gamma-cyhalothrin],pest or weed control at 0.032 g/ha,"[1]; Myzus persicae, 24 h, 0.032 g/ha, after 1 d, read-out: Kill in % after 1d",0%
same,pest or weed control at 0.8 g/ha,[4]; [17],0%
O=[N+]([O-])/N=C1\NCCN1Cc1ccc(Cl)nc1 [imidacloprid],pest or weed control at 0.16 g/ha,[1]; [18],0%
same,pest or weed control at 20 g/ha,[3]; [8],33%
COc1cccc(C(=O)NN(C(=O)c2cc(C)cc(C)c2)C(C)(C)C)c1C [methoxyfenozide],pest or weed control at 20 g/ha,[2]; [6],33%
O=C(NC(=O)c1c(F)cccc1F)Nc1ccc(OC(F)(F)C(F)OC(F)(F)F)c(Cl)c1 (stereo not shown) [novaluron],pest or weed control at 100 g/ha,[3]; [9],0%
CC(=O)N1C(=O)N(NCc2cccnc2)Cc2cc(C(F)(C(F)(F)F)C(F)(F)F)ccc21 [pyrifluquinazone],pest or weed control at 100 g/ha,"[4]; Tetranychus urticae, foliar, 144 h, 100 g/ha, 6 d, read-out: Kill in % after 6 d",0%
CCC(C)(C)C(=O)OC1=C(c2ccc(Cl)cc2Cl)C(=O)OC12CCCCC2 [spirodiclofen],pest or weed control at 4 g/ha,[1]; [5],0%
same,pest or weed control at 0.8 g/ha,[4]; [10],20%
Cc1cc(C)c(C2=C(OC(=O)CC(C)(C)C)C3(CCCC3)OC2=O)c(C)c1 [spiromesifen],pest or weed control at 0.8 g/ha,[1]; [5],0%
same,pest or weed control at 20 g/ha,"[4]; Tetranychus urticae, foliar, 48 h, 20 g/ha, 2 d, read-out: Kill in % after 2 d",0%
CCOC(=O)OC1=C(c2cc(C)ccc2C)C(=O)N[C@]12CC[C@@H](OC)CC2 [spirotetramat],pest or weed control at 0.16 g/ha,[1]; [12],0%
CC(c1ccc(C(F)(F)F)nc1)S(C)(=O)=NC#N (stereo not shown) [sulfoxaflor],pest or weed control at 4 g/ha,[4]; [11],0%
"CCc1nn(C)c(C(=O)NCc2ccc(C(C)(C)C)cc2)c1Cl [tebufenpyrad, Tebufenpyrad]",pest or weed control at 20 g/ha,[1]; [7],0%
same,pest or weed control at 100 g/ha,[3]; [9],0%
same,pest or weed control at 0.8 g/ha,[4]; [17],0%
same,pest or weed control at 4 g/ha,[4]; [15],70%
N#C/N=C1\SCCN1Cc1ccc(Cl)nc1 [thiacloprid],pest or weed control at 0.16 g/ha,[1]; [18],0%
same,pest or weed control at 0.16 g/ha,[1]; [12],0%
same,pest or weed control at 20 g/ha,[3]; [8],0%
CN1COCN(Cc2cnc(Cl)s2)/C1=N/[N+](=O)[O-] [thiamethoxam],pest or weed control at 0.16 g/ha,[1]; [18],0%
same,pest or weed control at 0.16 g/ha,[1]; [12],0%
same,pest or weed control at 20 g/ha,[3]; [8],50%
CS/C(C)=N\OC(=O)N(C)SN(C)C(=O)O/N=C(\C)SC [thiodicarb],pest or weed control at 100 g/ha,"[1]; Myzus persicae, 24 h, 100 g/ha, after 1 d, read-out: Kill in % after 1d",0%
CC1(C)[C@H](C=C(Cl)Cl)[C@H]1C(=O)OCc1c(F)c(F)cc(F)c1F [transfluthrin],pest or weed control at 4 g/ha,[2]; [13],33%
O=C(NC(=O)c1ccccc1Cl)Nc1ccc(OC(F)(F)F)cc1 [triflumuron],pest or weed control at 4 g/ha,[2]; [13],17%
abamectin,Kill in % after 1d,"[1]; 0.16 g/ha, after 1 d",0%
same,Kill in % after 6 d,"[1]; 0.16 g/ha, single active compound, 6 d",0%
same,Kill in % after 6 d,"[3]; 0.16 g/ha, 6 d",0%
same,Kill in % after 2 d,"[4]; 4 g/ha, 2 d",0%
milbemectin,Kill in % after 6 d,"[3]; 20 g/ha, 6 d",0%
spinetoram,Kill in % after 2 d,"[3]; 4 g/ha, 2 d",50%
spinosad,Kill in % after 2 d,"[3]; 4 g/ha, 2 d",33%
same,Kill in % after 6 d,"[4]; 20 g/ha, 6 d",80%
